Results on 31 compounds are retold here after US8058243B2, “Method for treating a brain cancer with ifenprodil” (HSC Research and Development Limited Partnership, priority 2006, dated 2011).

The test relates to murine neural precursor cells (neurosphere cultures). Briefly: HTS of LOPAC library against secondary neurosphere cultures, MTT proliferation assay at 3 μM, day 7 (z score, P value). Type of test: cell-based, mouse.
Setting [1] is: LOPAC primary screen, neurosphere MTT proliferation, 3 μM, day 7.
The mark [2] stands for this setting: yes/no: significantly inhibited neurosphere proliferation (P<0.01) in the primary screen.
The mark [3] stands for this setting: LOPAC library screen, 3 μM, MTT, secondary neurosphere cultures, day 7.
[4] abbreviates: yes = significantly inhibited neurosphere proliferation (P<0.01) in the primary screen.
Where [5] appears, read: LOPAC library screen, 3 μM, MTT, neurosphere cultures.
The mark [6] stands for this setting: LOPAC screen, neurosphere MTT proliferation, 3 μM, day 7.
Setting [7] is: yes/no: significantly inhibited neurosphere proliferation (P<0.01) in primary screen.
Setting [8] is: primary LOPAC screen, 3 μM, MTT, neurosphere proliferation.
Where [9] appears, read: yes/no: significantly inhibited neurosphere proliferation in the primary screen.
Where [10] appears, read: LOPAC library screen at 3 μM, secondary neurosphere cultures, MTT.

Structures can show the parent of a compound that is named as a salt. Where two headings read alike, the source gives them in different places.

On to `Br.CCCN1CCC2c3cc(O)ccc3CCC21` (racemic) [cis-(±)-8-OH-PBZI hydrobromide], for which the Z score under setting [1] is −2.297. Moreover, the Activity result under setting [2] is listed as “no”.
Take `CC[C@@H]1/C=C/C=C/C[C@H](C)[C@H](O)[C@](C)(O)C(=O)[C@H](C)[C@@H](O)[C@H](C)C(=O)[C@H](C)[C@@H](O)[C@H](C)/C=C/C(=O)O[C@H]2[C@@H](C)[C@@H](CC1)O[C@@]1(CC[C@@H](C)[C@@H](C[C@H](C)O)O1)[C@@H]2C` [Oligomycin A]: under setting [3], the “Z Score” value was −9.731. The Z score under setting [1] is reported as −9.731. Moreover, under setting [4], the Activity result is given as “yes”.
In the case of `Br.NC1CCc2cc(O)c(O)cc2C1` (centres unmarked) [6,7-ADTN hydrobromide], the “Z Score” value under setting [5] is listed as 0.357. The Z score under setting [6] was 0.357. For the same compound, under setting [7], the Activity result is recorded as “no”.
In the case of `CN1C(=O)CCS(=O)(=O)C1c1ccc(Cl)cc1` (centres unmarked) [Chlormezanone], the “Z Score” value was −0.9465. This compound registered a Z score under setting [6] of −0.947. For the same compound, under setting [7], the Activity result is given as “no”.
As to `O=C(O)[C@H]1CCCN[C@H]1C(=O)O`, the “Z Score” value was 0.1553.
Take `NCCCCCCCCCCN` [1,10-Diaminodecane]: for the setting “168 h, 3 µM”, the “Z Score” value was found to be 0.1393 and the Z score is given as 0.139. The Activity result under setting [7] is reported as “no”.
`O=C1NCN(c2ccccc2)C12CCN(CC1COc3ccccc3O1)CC2` (centres unmarked) [Spiroxatrine]: the “Z Score” value under setting [5] is reported as 0.1219. The compound also displayed a Z score under setting [1] of 0.122. In addition, the Activity entry (yes/no: significantly inhibited neurosphere proliferation in primary screen) is given as “no”.
`CC(=O)NCCc1ccc(O)c(O)c1.O` [N-Acetyldopamine monohydrate]: the “Z Score” value is recorded as 0.4667. Moreover, the Z score under setting [8] is given as 0.467. In addition, the Activity entry under setting [9] is “no”.
Regarding `C/C(=C\c1ccc(C(=O)O)cc1)c1ccc2c(c1)C(C)(C)CCC2(C)C` [TTNPB], the “Z Score” value was −2.158. The Z score under setting [8] is given as −2.158. In addition, the Activity result under setting [9] was “no”.
As for `CN(C)CCOC(C)(c1ccccc1)c1ccccn1` (centres unmarked) [Doxylamine succinate], the “Z Score” value (LOPAC library screen at 3 μM, MTT, secondary neurosphere cultures, screened in singlets) is recorded as 1.736. The compound further showed a Z score under setting [6] of 1.736. For the same compound, the Activity result under setting [7] is on record as “no”.
Take `COc1ccccc1N1CCN(CCCNc2c(C)c(=O)n(C)c(=O)n2C)CC1` [Urapidil, 5-Methyl-]: the “Z Score” value under setting [10] was −0.7831. The compound further yielded a Z score under setting [8] of −0.783. The Activity entry under setting [9] is “no”.
For `C[C@H]1c2cccc(O)c2C(=O)C2=C(O)[C@]3(O)C(=O)C(C(N)=O)=C(O)[C@@H](N(C)C)[C@@H]3[C@@H](O)[C@@H]21` [Doxycycline hydrochloride], the “Z Score” value under setting [10] is −0.5578. Moreover, the Z score under setting [6] is −0.558. The Activity entry under setting [7] was “no”.
In the case of `Cc1nnc(SCC2=C(C(=O)O)N3C(=O)[C@@H](NC(=O)Cn4cnnn4)[C@H]3SC2)s1` [Cefazolin sodium], the “Z Score” value under setting [3] is given as −2.58. This compound came in with a Z score under setting [1] of −2.580. Under setting [2], the Activity entry is listed as “yes”.
As for `Cc1ccccc1C(OCCN(C)C)c1ccccc1` (centres unmarked) [Orphenadrine hydrochloride], the “Z Score” value under setting [5] was determined as 0.4548. The Z score under setting [1] worked out at 0.455.
For `COc1ccccc1N1CCN(CCN(C(=O)c2ccc(F)cc2)c2ccccn2)CC1.Cl.Cl` [p-MPPF dihydrochloride], the “Z Score” value is on record as −2.16.
In the case of `CC(C)CC(NC(=O)C1OC1C(=O)O)C(=O)NCCCCNC(=N)N` (centres unmarked) [E-64], the “Z Score” value is reported as −1.709. This compound also showed a Z score under setting [6] of −1.709. In addition, under setting [7], the Activity entry is “no”.
Take `Oc1ccc2c3c1O[C@H]1c4[nH]c5c(c4C[C@@]4(O)[C@@H](C2)N(CC2CC2)CC[C@]314)C[C@@]1(O)[C@H]2Cc3ccc(O)c4c3[C@@]1(CCN2CC1CC1)[C@H]5O4` [nor-Binaltorphimine dihydrochloride]: the “Z Score” value turned out to be 0.3881. Under setting [1], this compound returned a Z score of 0.388. Further, the Activity entry under setting [4] is listed as “no”.
As to Vinblastine sulfate salt, the “Z Score” value is −9.396. The compound further displayed a Z score under setting [1] of −9.396. Moreover, the Activity result under setting [2] is “yes”.
On to Piribedil maleate, for which, under setting [10], the “Z Score” value is −0.3345. The same compound yielded a Z score under setting [1] of −0.334. Also, the Activity result under setting [2] was “no”.
Consider `CCCCCCCCCCCCCCCC(=O)NCC(COP(=O)([O-])OCC[N+](C)(C)C)OCC` (racemic) [rac-2-Ethoxy-3-hexadecanamido-1-propylphosphocholine], for which, under “168 h, 3 µM”, the “Z Score” value is given as −1.269 and the Z score is recorded as −1.269. Also, under setting [7], the Activity result is recorded as “no”.
Take `CC(=O)O.CSC(=N)NCCC[C@H](N)C(=O)O` [S-Methyl-L-thiocitrulline acetate]: the “Z Score” value is −1.751. For the same compound, the Z score under setting [1] is listed as −1.751. The Activity entry under setting [4] is recorded as “no”.
Regarding `CCCCCCCCCCCCCCCC(=O)OC(CC(=O)O)C[N+](C)(C)C.[Cl-]` (racemic) [Palmitoyl-DL-Carnitine chloride], the “Z Score” value stood at 0.1995.
With `CN1CCN(C2=Nc3ccccc3Oc3ccc(Cl)cc32)CC1` [Loxapine succinate], the “Z Score” value is reported as −0.7477. Under setting [1], this compound came in with a Z score of −0.748. Besides, the Activity entry under setting [7] was “no”.
Consider `C[C@@H]1O[C@@H]1P(=O)([O-])[O-].[Na+].[Na+]` [Phosphomycin disodium], for which, under setting [3], the “Z Score” value was −1.402. Besides, the Z score under setting [1] was −1.402. Also, the Activity result under setting [4] was “no”.
On to `CC[N+](CC)(CC)CCOc1ccc(/C=C/c2ccccc2)cc1` [MG 624], for which, where the note is “168 h, 3 µM”, the “Z Score” value is on record as −10.66 and the Z score was −10.660. For the same compound, the Activity result under setting [2] is listed as “yes”.
Take `CN[C@H](CC(C)C)C(=O)N[C@H]1C(=O)N[C@@H](CC(N)=O)C(=O)N[C@H]2C(=O)N[C@H]3C(=O)N[C@H](C(=O)N[C@H](C(=O)O)c4cc(O)cc(O)c4-c4cc3ccc4O)[C@H](O)c3ccc(c(Cl)c3)Oc3cc2cc(c3O[C@@H]2O[C@H](CO)[C@@H](O)[C@H](O)[C@H]2O[C@H]2C[C@](C)(N)[C@H](O)[C@H](C)O2)Oc2ccc(cc2Cl)[C@H]1O.Cl`: under setting [5], the “Z Score” value is recorded as −0.06352. The same compound registered a Z score under setting [8] of −0.064. The Activity entry under setting [9] was “no”.
As for `Cl.O=C(O)C1=CCCNC1` [Guvacine hydrochloride], the “Z Score” value is listed as −1.345. In addition, the Z score under setting [1] was −1.345. The Activity entry under setting [7] is “no”.
Under setting [1], `CN1CCN(C2Cc3ccccc3Sc3ccc(Cl)cc32)CC1.O=C(O)/C=C\C(=O)O` (racemic) [(±)-Octoclothepin maleate] returned a Z score of 1.473. The Activity entry under setting [2] was “no”.
As for `CCN(CC)c1ncnc2c1ncn2[C@@H]1O[C@H](COP(=O)([O-])OP(=O)([O-])C(Br)(Br)P(=O)([O-])O)[C@@H](O)[C@H]1O.[Na+].[Na+].[Na+]` [ARL 67156 trisodium salt], the “Z Score” value is listed as −0.168. Moreover, the Z score under setting [8] is recorded as −0.168. The Activity result under setting [9] was “no”.
Under setting [6], `COC(=O)C1=C(C)NC(C)=C([N+](=O)[O-])C1c1ccccc1C(F)(F)F` (racemic) [(±)-Bay K 8644] came in with a Z score of 0.853. The Activity result under setting [7] was “no”.
As for `C[C@]12CC[C@@H]3c4ccc(O)cc4CC[C@H]3[C@@H]1CC[C@@H]2O` [beta-Estradiol], the “Z Score” value is on record as −0.5623. Under setting [1], this compound yielded a Z score of −0.562. In addition, the Activity result under setting [7] is “no”.
